Data reported in the supplement of paper PMC8612539.
≈ marks a conversion by molar mass, not a printed value.

System: Pasteurella multocida
Test: minimum inhibitory concentration (MIC)
Description: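 Broth microdilution MIC (Sensititre BOPO7F bovine plate, CLSI methods) of 19 antimicrobials against field isolates of P. multocida, M. haemolytica, H. somni (deep nasopharyngeal swabs) and E. coli, Enterococcus spp. (rectal swabs) from weaned dairy heifers. Incubation 16-24 h at 35 C. MIC is the lowest concentration preventing visible growth. Values with <= or > lie at the tested range limits. Trimethoprim-sulfamethoxazole is given as the trimethoprim component of a 1:19 mixture.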

CC[C@H]1OC(=O)C[C@@H](O)[C@H](C)[C@@H](O[C@@H]2O[C@H](C)[C@@H](O[C@H]3C[C@@](C)(O)[C@@H](O)[C@H](C)O3)[C@H](N(C)C)[C@H]2O)[C@@H](CC=O)C[C@@H](C)C(=O)/C=C/C(C)=C/[C@@H]1CO[C@@H]1O[C@H](C)[C@@H](O)[C@@H](OC)[C@H]1OC [Tylosin]
Details | minimum inhibitory concentration [µg/mL]
isolate (source animal id): 10 | > 32
isolate (source animal id): 11 | > 32
isolate (source animal id): 12 | > 32
isolate (source animal id): 19 | > 32
isolate (source animal id): 23 | > 32
isolate (source animal id): 26 | > 32
isolate (source animal id): 98 | > 32
isolate (source animal id): 104 | > 32
isolate (source animal id): 115 | > 32
isolate (source animal id): 117 | > 32
isolate (source animal id): 118 | > 32
isolate (source animal id): 121 | > 32
isolate (source animal id): 124 | > 32
isolate (source animal id): 125 | > 32
isolate (source animal id): 128 | > 32
isolate (source animal id): 131 | > 32
isolate (source animal id): 135 | > 32
isolate (source animal id): 136 | > 32
isolate (source animal id): 140 | > 32
isolate (source animal id): 144 | > 32
isolate (source animal id): 146 | > 32
isolate (source animal id): 150 | > 32
isolate (source animal id): 151 | > 32
isolate (source animal id): 153 | > 32
isolate (source animal id): 155 | > 32
isolate (source animal id): 157 | > 32
isolate (source animal id): 160 | > 32
isolate (source animal id): 164 | > 32
isolate (source animal id): 165 | > 32
isolate (source animal id): 167 | > 32
isolate (source animal id): 168 | > 32
isolate (source animal id): 169 | > 32
isolate (source animal id): 170 | > 32
isolate (source animal id): 171 | > 32
isolate (source animal id): 172 | > 32
isolate (source animal id): 173 | > 32
isolate (source animal id): 174 | > 32
isolate (source animal id): 175 | > 32
isolate (source animal id): 176 | > 32
isolate (source animal id): 177 | > 32
isolate (source animal id): 178 | > 32
isolate (source animal id): 179 | 32 (≈ 34.9 µM)
isolate (source animal id): 182 | > 32
isolate (source animal id): 192 | > 32
isolate (source animal id): 193 | 32 (≈ 34.9 µM)
isolate (source animal id): 195 | 32 (≈ 34.9 µM)
isolate (source animal id): 196 | > 32
isolate (source animal id): 197 | > 32
isolate (source animal id): 198 | > 32
isolate (source animal id): 199 | > 32
isolate (source animal id): 200 | > 32
isolate (source animal id): 201 | > 32
isolate (source animal id): 203 | 32 (≈ 34.9 µM)
isolate (source animal id): 204 | > 32
isolate (source animal id): 205 | > 32
isolate (source animal id): 206 | > 32
isolate (source animal id): 207 | 32 (≈ 34.9 µM)
isolate (source animal id): 208 | 32 (≈ 34.9 µM)
isolate (source animal id): 209 | 32 (≈ 34.9 µM)
isolate (source animal id): 210 | > 32
isolate (source animal id): 213 | 32 (≈ 34.9 µM)
isolate (source animal id): 216 | > 32
isolate (source animal id): 223 | > 32
isolate (source animal id): 227 | 32 (≈ 34.9 µM)
isolate (source animal id): 229 | > 32
isolate (source animal id): 233 | > 32
isolate (source animal id): 234 | > 32
isolate (source animal id): 237 | > 32
isolate (source animal id): 241 | > 32
isolate (source animal id): 245 | > 32
isolate (source animal id): 247 | > 32
isolate (source animal id): 250 | > 32
isolate (source animal id): 254 | > 32
isolate (source animal id): 255 | > 32
isolate (source animal id): 258 | 32 (≈ 34.9 µM)
isolate (source animal id): 261 | > 32
isolate (source animal id): 262 | > 32
isolate (source animal id): 269 | > 32
isolate (source animal id): 270 | > 32
isolate (source animal id): 274 | > 32
isolate (source animal id): 275 | > 32
isolate (source animal id): 276 | > 32
isolate (source animal id): 277 | > 32
isolate (source animal id): 278 | > 32
isolate (source animal id): 279 | > 32
isolate (source animal id): 280 | > 32
isolate (source animal id): 284 | > 32
isolate (source animal id): 285 | > 32
isolate (source animal id): 287 | > 32
isolate (source animal id): 290 | > 32
isolate (source animal id): 294 | > 32
isolate (source animal id): 295 | > 32
isolate (source animal id): 296 | > 32
isolate (source animal id): 307 | > 32
isolate (source animal id): 310 | > 32
isolate (source animal id): 311 | > 32
isolate (source animal id): 312 | > 32
isolate (source animal id): 313 | > 32
isolate (source animal id): 315 | > 32
isolate (source animal id): 316 | > 32

CC[C@H]1OC(=O)C[C@@H](O)[C@H](C)[C@@H](O[C@@H]2O[C@H](C)[C@@H](O)[C@H](N(C)C)[C@H]2O)[C@@H](CCN2C[C@H](C)C[C@H](C)C2)C[C@@H](C)C(=O)/C=C/C(C)=C/[C@@H]1CO[C@@H]1O[C@H](C)[C@@H](O)[C@@H](OC)[C@H]1OC [Tilmicosin]
Details | minimum inhibitory concentration [µg/mL]
isolate (source animal id): 10 | > 16
isolate (source animal id): 11 | > 16
isolate (source animal id): 12 | > 16
isolate (source animal id): 19 | > 16
isolate (source animal id): 23 | > 16
isolate (source animal id): 26 | > 16
isolate (source animal id): 98 | > 16
isolate (source animal id): 104 | > 16
isolate (source animal id): 115 | > 16
isolate (source animal id): 117 | > 16
isolate (source animal id): 118 | > 16
isolate (source animal id): 121 | > 16
isolate (source animal id): 124 | > 16
isolate (source animal id): 125 | > 16
isolate (source animal id): 128 | > 16
isolate (source animal id): 131 | > 16
isolate (source animal id): 135 | > 16
isolate (source animal id): 136 | > 16
isolate (source animal id): 140 | > 16
isolate (source animal id): 144 | > 16
isolate (source animal id): 146 | > 16
isolate (source animal id): 150 | > 16
isolate (source animal id): 151 | > 16
isolate (source animal id): 153 | > 16
isolate (source animal id): 155 | > 16
isolate (source animal id): 157 | 16 (≈ 18.4 µM)
isolate (source animal id): 160 | > 16
isolate (source animal id): 164 | > 16
isolate (source animal id): 165 | > 16
isolate (source animal id): 167 | 8 (≈ 9.2 µM)
isolate (source animal id): 168 | > 16
isolate (source animal id): 169 | 4 (≈ 4.6 µM)
isolate (source animal id): 170 | 16 (≈ 18.4 µM)
isolate (source animal id): 171 | 8 (≈ 9.2 µM)
isolate (source animal id): 172 | 8 (≈ 9.2 µM)
isolate (source animal id): 173 | > 16
isolate (source animal id): 174 | 8 (≈ 9.2 µM)
isolate (source animal id): 175 | 8 (≈ 9.2 µM)
isolate (source animal id): 176 | 8 (≈ 9.2 µM)
isolate (source animal id): 177 | 8 (≈ 9.2 µM)
isolate (source animal id): 178 | 4 (≈ 4.6 µM)
isolate (source animal id): 179 | 4 (≈ 4.6 µM)
isolate (source animal id): 182 | 16 (≈ 18.4 µM)
isolate (source animal id): 192 | 4 (≈ 4.6 µM)
isolate (source animal id): 193 | 8 (≈ 9.2 µM)
isolate (source animal id): 195 | 8 (≈ 9.2 µM)
isolate (source animal id): 196 | 8 (≈ 9.2 µM)
isolate (source animal id): 197 | 16 (≈ 18.4 µM)
isolate (source animal id): 198 | > 16
isolate (source animal id): 199 | 8 (≈ 9.2 µM)
isolate (source animal id): 200 | 4 (≈ 4.6 µM)
isolate (source animal id): 201 | 8 (≈ 9.2 µM)
isolate (source animal id): 203 | 4 (≈ 4.6 µM)
isolate (source animal id): 204 | 8 (≈ 9.2 µM)
isolate (source animal id): 205 | > 16
isolate (source animal id): 206 | 8 (≈ 9.2 µM)
isolate (source animal id): 207 | 8 (≈ 9.2 µM)
isolate (source animal id): 208 | 4 (≈ 4.6 µM)
isolate (source animal id): 209 | 4 (≈ 4.6 µM)
isolate (source animal id): 210 | > 16
isolate (source animal id): 213 | 8 (≈ 9.2 µM)
isolate (source animal id): 216 | 8 (≈ 9.2 µM)
isolate (source animal id): 223 | > 16
isolate (source animal id): 227 | 4 (≈ 4.6 µM)
isolate (source animal id): 229 | > 16
isolate (source animal id): 233 | > 16
isolate (source animal id): 234 | > 16
isolate (source animal id): 237 | > 16
isolate (source animal id): 241 | > 16
isolate (source animal id): 245 | > 16
isolate (source animal id): 247 | > 16
isolate (source animal id): 250 | > 16
isolate (source animal id): 254 | > 16
isolate (source animal id): 255 | > 16
isolate (source animal id): 258 | 8 (≈ 9.2 µM)
isolate (source animal id): 261 | > 16
isolate (source animal id): 262 | > 16
isolate (source animal id): 269 | 8 (≈ 9.2 µM)
isolate (source animal id): 270 | > 16
isolate (source animal id): 274 | > 16
isolate (source animal id): 275 | > 16
isolate (source animal id): 276 | > 16
isolate (source animal id): 277 | 8 (≈ 9.2 µM)
isolate (source animal id): 278 | > 16
isolate (source animal id): 279 | > 16
isolate (source animal id): 280 | > 16
isolate (source animal id): 284 | > 16
isolate (source animal id): 285 | > 16
isolate (source animal id): 287 | > 16
isolate (source animal id): 290 | > 16
isolate (source animal id): 294 | > 16
isolate (source animal id): 295 | > 16
isolate (source animal id): 296 | > 16
isolate (source animal id): 307 | > 16
isolate (source animal id): 310 | > 16
isolate (source animal id): 311 | > 16
isolate (source animal id): 312 | > 16
isolate (source animal id): 313 | > 16
isolate (source animal id): 315 | > 16
isolate (source animal id): 316 | > 16
